Tests used:
[1] = test system: HER14 cells (fibroblasts stably transfected with the human epidermal growth factor receptor); assay: Viability assay (MTT) with HER14 cells, dianthin-EGF, SA1641 and polymeric structure (Example 11); assay type: cell-based; conditions: 72 h
Experimental: To test the efficacy of the invention, we conducted a viability assay with HER14 cells. These cells are fibroblasts stably transfected with the human epidermal growth factor receptor and therefore target cells for the targeted toxin dianthin-EGF. HER14 cells (2,000 cells/100 μL/well) were seeded into wells of 96-well-cell culture plates and incubated for 24 h in DMEM medium supplemented with 10% fetal calf serum and 1% penicillin/streptomycin at 37° C., 5% CO2 and 98% humidity. The different test substances (see results and FIG. 21) were then added in triplicates in a volume of 25 μL and supplemented with further 25 μL of medium. After an incubation of 72 h, 30 μL 3-(4,5-dimethylthiazol-2-yl)-2,5-diphenyltetrazolium bromide (0.5 mg/mL in water) was added per well and incubated for 2 h. Thereafter, the medium was carefully removed and replaced by an aqueous solution containing 10% (v/v) isopropanol, 5% (w/v) sodium dodecyl sulfate and 400 mM HCl, and incubated for 5 min. Solubilized formazan was photometrically quantitated at […] in a microplate reader (Spectra MAX 340 PC, Molecular Devices, Sunnyvale, CA, USA). Untreated cells were normalized to 1 and all samples referred to the untreated control. Significance was determined by unpaired two-sample t-tests.

[2] = pH dependent hydrolysis of the hydrazone bond of SO1861-EMCH (MALDI-TOF-MS); assay type: physicochemical; conditions: HCl solution at pH 3, two points in time
HeLa cells = assay: Co-administration of PAMAM, dendron or chloroquine with dianthin-EGF and SO1861 on HeLa cells (inhibition of endosomal escape, cell viability); assay type: cell-based, human; conditions: 500 nM PAMAM, PAMAM derivatives or chloroquine, 667 nM dendron, various SO1861 concentrations
Text: As control for the inhibition of endosomal acidification chloroquine was used.

[3] = newly diagnosed glioblastoma (ABT-414); platinum-resistant ovarian cancer (IMGN853); cited from earlier work
[4] = test system: SK-BR-3, JIMT-1, MDA-MB-468, A431, CaSki, HeLa, A2058; assay: Control treatments, relative cell viability on various cancer cell lines (Example 4, FIG. 8); assay type: cell-based, human; conditions: wide range of toxin concentrations, up to 100.000 pM
Experimental: After treatment the cells were incubated for 72 hr at 37° C. before the cell viability was determined by a MTS-assay, performed according to the manufacturer's instruction (CellTiter 96® AQueous One Solution Cell Proliferation Assay, Promega). Briefly, the MTS solution was diluted 20× in DMEM without phenol red (PAN-Biotech GmbH) supplemented with 10% FBS (PAN-Biotech GmbH). The cells were washed once with 200 μL PBS per well, after which 100 μL diluted MTS solution was added per well. The plate was incubated for approximately 20-30 minutes at 37° C. Subsequently, the optical density at 492 nm was measured on a Thermo Scientific Multiskan FC plate reader (Thermo Scientific). For quantification the background signal of ‘medium only’ wells was subtracted from all other wells, before the ratio of untreated/treated cells was calculated, by dividing the background corrected signal of untreated wells over the background corrected signal of the treated wells.

C[C@@H]1O[C@@H](O[C@H]2[C@H](OC(=O)[C@]34CCC(C)(C)C[C@H]3C3=CC[C@@H]5[C@@]6(C)CC[C@H](O[C@H]7O[C@H](C(=O)O)[C@@H](O)[C@H](O[C@@H]8OC[C@@H](O)[C@H](O)[C@H]8O)[C@H]7O[C@@H]7O[C@H](CO)[C@H](O)[C@H](O)[C@H]7O)[C@@](C)(C=O)[C@@H]6CC[C@@]5(C)[C@]3(C)CC4)O[C@H](C)[C@H](O[C@@H]3O[C@H](C)[C@@H](O)[C@H](O)[C@H]3O)[C@@H]2O)[C@H](O)[C@H](O)[C@H]1O[C@@H]1OC[C@@H](O)[C@H](O[C@@H]2OC[C@@H](O)[C@H](O)[C@H]2O)[C@H]1O [SA1641]
effect on cells of 0.1 nM dianthin-EGF in the presence of SA1641 [1]: death of all cells

CC(=O)OC1C(C)OC(OC2C(C)OC(OC(=O)[C@]34CCC(C)(C)CC3C3=CCC5[C@@]6(C)CC[C@H](OC7OC(C(=O)O)C(O)C(OC8OCC(O)C(O)C8O)C7OC7OC(CO)C(O)C(O)C7O)[C@@](C)(/C=N/NC(=O)CCCCCN7C(=O)C=CC7=O)C6CC[C@@]5(C)[C@]3(C)C[C@H]4O)C(OC3OC(C)C(OC4OCC(O)C(OC5OC(CO)C(O)C(O)C5O)C4O)C(O)C3O)C2O)C(O)C1OC1OCC(O)C(O)C1O (stereo partly drawn) [SO1861-EMCH]
hydrolysis of the hydrazone bond [2]: responsive towards hydrolysis and gets cleaved

CCN(CC)CCCC(C)Nc1ccnc2cc(Cl)ccc12 (stereo not drawn) [chloroquine]
effect on SO1861-mediated endosomal escape of the targeted toxin (dianthin-EGF) and cell killing (HeLa cells): inhibit the SO1861-mediated endosomal escape of the targeted toxin and subsequent cell killing

depatuxizumab mafodotin: EGFR targeted ADC, AbbVie
survival benefit in phase 3 trials [3]: no survival benefit

mirvetuximab soravtansine: folate receptor alpha targeted ADC, ImmunoGen
survival benefit in phase 3 trials [3]: no survival benefit

saporin
influence on cell viability [4]: do not or hardly have any influence on cell viability

— patent US12453782B2, “Antibody-oligonucleotide conjugate” (priority 2018, dated 2025)
